# Measurements as given in patent publication US20120029187A1, “HALOALKYLSULFONANILIDE DERIVATIVE” (Nissan Chemical Industries, Ltd., priority 2009, published 2012).
# How the values were obtained:
# Format in all cases: in vivo
# bulrush [1] = assay: Test Example 1: herbicidal effects in preemergence treatment under submerged conditions; details: dose 2.52 g/a
# Outline: (§1)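 Weed seeds and 2.5-leaf rice seedlings shared each flooded cup of alluvial soil. Dosing, expressed as g per are, was by pouring water-diluted emulsifiable concentrate onto the surface on sowing day. Mortality was graded 0 to 5 after three weeks' growth.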
# barnyardgrass [2] = assay: as above; details: dose 2.52 g/a
# Outline: as §1
# ducksalad [3] = assay: as above; details: dose 2.52 g/a
# Outline: as §1
# water foxtail [4] = assay: Test Example 3: herbicidal effects in soil treatment; details: dose 3.2 g/a
# Outline: (§2)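 Seeds were sown in sterilized diluvial soil and covered with about 1.5 cm of soil. Compounds, formulated as emulsifiable concentrates and diluted with water, were sprayed evenly over the soil surface at set doses in g/a. Herbicidal effect was scored on a rating scale three weeks later.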
# Italian ryegrass [5] = assay: as above; details: dose 3.2 g/a
# Outline: as §2
# beadstraw [6] = assay: as above; details: dose 3.2 g/a
# Outline: as §2
# posumbu knotweed [7] = assay: as above; details: dose 3.2 g/a
# Outline: as §2
# redroot pigweed [8] = assay: as above; details: dose 3.2 g/a
# Outline: as §2
# velvetleaf [9] = assay: as above; details: dose 3.2 g/a
# Outline: as §2
# common chickweed [10] = assay: as above; details: dose 3.2 g/a
# Outline: as §2
# common lambsquater [11] = assay: as above; details: dose 3.2 g/a
# Outline: as §2
# giant foxtail [12] = assay: as above; details: dose 3.2 g/a
# Outline: as §2
# common ragweed [13] = assay: as above; details: dose 3.2 g/a
# Outline: as §2
# barnyardgrass [14] = assay: as above; details: dose 3.2 g/a
# Outline: as §2
# large crabgrass [15] = assay: as above; details: dose 3.2 g/a
# Outline: as §2
# transplanted rice = assay: Test Example 1: preemergence treatment under submerged conditions, effect on crop; details: dose 2.52 g/a
# Outline: as §1
# water foxtail [16] = assay: Test Example 4: herbicidal effect in foliage treatment; details: dose 3.2 g/a, three weeks after application
# Outline: (§3)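 14-day greenhouse-grown plants (25–30° C) sprayed on foliage with diluted EC; dose as g/a; effect graded after 3 weeks.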
# Italian ryegrass [17] = assay: as above; details: dose 3.2 g/a, three weeks after application
# Outline: as §3
# beadstraw [18] = assay: as above; details: dose 3.2 g/a, three weeks after application
# Outline: as §3
# posumbu knotweed [19] = assay: as above; details: dose 3.2 g/a, three weeks after application
# Outline: as §3
# redroot pigweed [20] = assay: as above; details: dose 3.2 g/a, three weeks after application
# Outline: as §3
# velvetleaf [21] = assay: as above; details: dose 3.2 g/a, three weeks after application
# Outline: as §3
# common chickweed [22] = assay: as above; details: dose 3.2 g/a, three weeks after application
# Outline: as §3
# common lambsquater [23] = assay: as above; details: dose 3.2 g/a, three weeks after application
# Outline: as §3
# giant foxtail [24] = assay: as above; details: dose 3.2 g/a, three weeks after application
# Outline: as §3
# common ragweed [25] = assay: as above; details: dose 3.2 g/a, three weeks after application
# Outline: as §3
# barnyardgrass [26] = assay: as above; details: dose 3.2 g/a, three weeks after application
# Outline: as §3
# large crabgrass [27] = assay: as above; details: dose 3.2 g/a, three weeks after application
# Outline: as §3
# bulrush [28] = assay: Test Example 2: herbicidal effects during the vegetation period under submerged conditions; details: treatment during the vegetation period under submerged conditions; dose 2.52 g/a
# Outline: (§4)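 Barnyardgrass, bulrush and ducksalad were co-sown in alluvial soil flooded to 4 cm and grown in a greenhouse at 25 to 30° C. At the 1- or 2-leaf stage, water-diluted emulsifiable concentrates went onto the water surface at set doses (g/a). Herbicidal effect was scored three weeks later on a graded scale.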
# barnyardgrass [29] = assay: as above; details: treatment during the vegetation period under submerged conditions; dose 2.52 g/a
# Outline: as §4
# ducksalad [30] = assay: as above; details: treatment during the vegetation period under submerged conditions; dose 2.52 g/a
# Outline: as §4
SMILES,"B: bulrush, herbicidal effect (evaluation scale 0-5) (bulrush [1])","A: barnyardgrass, herbicidal effect (evaluation scale 0-5) (barnyardgrass [2])","C: ducksalad, herbicidal effect (evaluation scale 0-5) (ducksalad [3])","G: water foxtail, herbicidal effect (evaluation scale 0-5) (water foxtail [4])","H: Italian ryegrass, herbicidal effect (evaluation scale 0-5) (Italian ryegrass [5])","O: beadstraw, herbicidal effect (evaluation scale 0-5) (beadstraw [6])","M: posumbu knotweed, herbicidal effect (evaluation scale 0-5) (posumbu knotweed [7])","K: redroot pigweed, herbicidal effect (evaluation scale 0-5) (redroot pigweed [8])","I: velvetleaf, herbicidal effect (evaluation scale 0-5) (velvetleaf [9])","N: common chickweed, herbicidal effect (evaluation scale 0-5) (common chickweed [10])","L: common lambsquater, herbicidal effect (evaluation scale 0-5) (common lambsquater [11])","E: giant foxtail, herbicidal effect (evaluation scale 0-5) (giant foxtail [12])","J: common ragweed, herbicidal effect (evaluation scale 0-5) (common ragweed [13])","A: barnyardgrass, herbicidal effect (evaluation scale 0-5) (barnyardgrass [14])","D: large crabgrass, herbicidal effect (evaluation scale 0-5) (large crabgrass [15])","a: transplanted rice, effect on crop (evaluation scale 0-5) (transplanted rice)","G: water foxtail, herbicidal effect (water foxtail [16])","H: Italian ryegrass, herbicidal effect (Italian ryegrass [17])","O: beadstraw, herbicidal effect (beadstraw [18])","M: posumbu knotweed, herbicidal effect (posumbu knotweed [19])",also measured
O=C1CC2(CCCCC2)OCN1Cc1ccccc1NS(=O)(=O)C(F)(F)F [II-67],5 (mortality of 90% or above (nearly complete death)),5 (mortality of 90% or above (nearly complete death)),5 (mortality of 90% or above (nearly complete death)),5 (mortality of 90% or above (nearly complete death)),5 (mortality of 90% or above (nearly complete death)),5 (mortality of 90% or above (nearly complete death)),5 (mortality of 90% or above (nearly complete death)),3 (mortality of at least 40% and less than 70%),5 (mortality of 90% or above (nearly complete death)),5 (mortality of 90% or above (nearly complete death)),5 (mortality of 90% or above (nearly complete death)),5 (mortality of 90% or above (nearly complete death)),2 (mortality of at least 20% and less than 40%),5 (mortality of 90% or above (nearly complete death)),5 (mortality of 90% or above (nearly complete death)),0 (mortality of less than 5% (almost ineffective)),5 (mortality of 90% or above (nearly complete death)),2 (mortality of at least 20% and less than 40%),3 (mortality of at least 40% and less than 70%),3 (mortality of at least 40% and less than 70%),"K: redroot pigweed, herbicidal effect (redroot pigweed [20]): 0 (mortality of less than 5% (almost ineffective)); I: velvetleaf, herbicidal effect (velvetleaf [21]): 5 (mortality of 90% or above (nearly complete death)); N: common chickweed, herbicidal effect (common chickweed [22]): 4 (mortality of at least 70% and less than 90%); L: common lambsquater, herbicidal effect (common lambsquater [23]): 4 (mortality of at least 70% and less than 90%); E: giant foxtail, herbicidal effect (giant foxtail [24]): 5 (mortality of 90% or above (nearly complete death)); J: common ragweed, herbicidal effect (common ragweed [25]): 3 (mortality of at least 40% and less than 70%); A: barnyardgrass, herbicidal effect (barnyardgrass [26]): 5 (mortality of 90% or above (nearly complete death)); D: large crabgrass, herbicidal effect (large crabgrass [27]): 5 (mortality of 90% or above (nearly complete death)); B: bulrush, herbicidal effect (evaluation scale 0-5) (bulrush [28]): 5 (mortality of 90% or above (nearly complete death)); A: barnyardgrass, herbicidal effect (evaluation scale 0-5) (barnyardgrass [29]): 5 (mortality of 90% or above (nearly complete death)); C: ducksalad, herbicidal effect (evaluation scale 0-5) (ducksalad [30]): 5 (mortality of 90% or above (nearly complete death))"
CC1(C)CC(=O)N(Cc2ccccc2N(C(=O)OCCCl)S(=O)(=O)C(F)(F)F)CO1 [II-28],5 (mortality of 90% or above (nearly complete death)),5 (mortality of 90% or above (nearly complete death)),5 (mortality of 90% or above (nearly complete death)),5 (mortality of 90% or above (nearly complete death)),2 (mortality of at least 20% and less than 40%),5 (mortality of 90% or above (nearly complete death)),5 (mortality of 90% or above (nearly complete death)),0 (mortality of less than 5% (almost ineffective)),4 (mortality of at least 70% and less than 90%),4 (mortality of at least 70% and less than 90%),0 (mortality of less than 5% (almost ineffective)),5 (mortality of 90% or above (nearly complete death)),4 (mortality of at least 70% and less than 90%),5 (mortality of 90% or above (nearly complete death)),5 (mortality of 90% or above (nearly complete death)),4 (mortality of at least 70% and less than 90%),5 (mortality of 90% or above (nearly complete death)),3 (mortality of at least 40% and less than 70%),5 (mortality of 90% or above (nearly complete death)),4 (mortality of at least 70% and less than 90%),"K: redroot pigweed, herbicidal effect (redroot pigweed [20]): 0 (mortality of less than 5% (almost ineffective)); I: velvetleaf, herbicidal effect (velvetleaf [21]): 4 (mortality of at least 70% and less than 90%); N: common chickweed, herbicidal effect (common chickweed [22]): 4 (mortality of at least 70% and less than 90%); L: common lambsquater, herbicidal effect (common lambsquater [23]): 1 (mortality of at least 5% and less than 20%); E: giant foxtail, herbicidal effect (giant foxtail [24]): 4 (mortality of at least 70% and less than 90%); J: common ragweed, herbicidal effect (common ragweed [25]): 3 (mortality of at least 40% and less than 70%); A: barnyardgrass, herbicidal effect (barnyardgrass [26]): 5 (mortality of 90% or above (nearly complete death)); D: large crabgrass, herbicidal effect (large crabgrass [27]): 4 (mortality of at least 70% and less than 90%); B: bulrush, herbicidal effect (evaluation scale 0-5) (bulrush [28]): 5 (mortality of 90% or above (nearly complete death)); A: barnyardgrass, herbicidal effect (evaluation scale 0-5) (barnyardgrass [29]): 5 (mortality of 90% or above (nearly complete death)); C: ducksalad, herbicidal effect (evaluation scale 0-5) (ducksalad [30]): 5 (mortality of 90% or above (nearly complete death))"
